Assay results as given in ChEMBL document CHEMBL1158124, “Engineering of the spinosyn PKS: directing starter unit incorporation” (2006).
Converted amounts (≈) assume the structure as drawn.

Key:
Type in all cases: functional
Spodoptera exigua = test: Insecticidal activity against beet armyworm assessed as mortality per larva after 5 days
Aphis gossypii = test: Insecticidal activity against cotton aphid assessed as count of nonwinged stage live aphid after 72 hrs with 24 hrs of photoperiod prior to grading
Heliothis virescens = test: Insecticidal activity against tobacco budworm assessed per larva
Bemisia tabaci = test: Insecticidal activity against sweet potato whitefly assessed as larval survival after 13 days; conditions: 312 h
Myzus persicae = test: Insecticidal activity against green peach aphid assessed as count of nonwinged stage live aphid after 72 hrs with 24 hrs of photoperiod prior to grading
Tetranychus urticae = test: Insecticidal activity against two-spotted spinder mites assessed as count of live mites after 4 days with low light condition; conditions: 96 h
Trichoplusia ni = test: Insecticidal activity against cabbage looper assessed as mortality per larva after 5 days

Structure (SMILES) | LC50 (Spodoptera exigua) [µg] | LC50 (Aphis gossypii) [mg/L] | LC50 (Heliothis virescens) [µg] | LC50 (Bemisia tabaci) [mg/L] | LC50 (Myzus persicae) [mg/L] | LC50 (Tetranychus urticae) [mg/L] | LC50 (Trichoplusia ni) [µg]
CCC[C@H]1CCC[C@H](O[C@H]2CC[C@H](N(C)C)[C@@H](C)O2)[C@@H](C)C(=O)C2=C[C@@H]3[C@@H](C=C[C@@H]4C[C@@H](O[C@@H]5O[C@@H](C)[C@H](OC)[C@@H](OC)[C@H]5OC)C[C@@H]34)[C@@H]2CC(=O)O1 [21-DESETHYL-21-N-PROPYLSPINOSYN A] | 0.031 | 27.3 (≈ 36.6 µM) | 0.025 | > 50 | > 50 | < 50 | 0.004
CC[C@H]1CCC[C@H](O[C@H]2CC[C@H](N(C)C)[C@@H](C)O2)[C@@H](C)C(=O)C2=C[C@@H]3[C@@H](C=C[C@@H]4C[C@@H](O[C@@H]5O[C@@H](C)[C@H](OC)[C@@H](OC)[C@H]5OC)C[C@@H]34)[C@@H]2CC(=O)O1 [SPINOSYN A] | 0.63 | 65 (≈ 88.8 µM) | 0.03 | 20 (≈ 27.3 µM) | 50 (≈ 68.3 µM) | 5.3 (≈ 7.24 µM) | 0.03
CO[C@@H]1[C@@H](OC)[C@H](C)O[C@@H](O[C@H]2C[C@H]3[C@@H]4C=C5C(=O)[C@H](C)[C@@H](O[C@H]6CC[C@H](N(C)C)[C@@H](C)O6)CCC[C@H](C)OC(=O)C[C@H]5[C@@H]4C=C[C@@H]3C2)[C@@H]1OC [SPINOSYN E] |  | > 50 |  | 3.9 (≈ 5.43 µM) | > 50 | 10 (≈ 13.9 µM) | 
CO[C@@H]1[C@@H](OC)[C@H](C)O[C@@H](O[C@H]2C[C@H]3[C@@H]4C=C5C(=O)[C@H](C)[C@@H](O[C@H]6CC[C@H](N(C)C)[C@@H](C)O6)CCC[C@H](C6CCC6)OC(=O)C[C@H]5[C@@H]4C=C(C)[C@@H]3C2)[C@@H]1OC | 0.385 | 15 (≈ 19.4 µM) | 0.016 | 13.5 (≈ 17.5 µM) | > 50 |  | 0.01
CO[C@@H]1[C@@H](OC)[C@H](C)O[C@@H](O[C@@H]2C[C@H]3CC[C@@H]4[C@@H](C=C5C(=O)[C@H](C)[C@@H](O[C@H]6CC[C@H](N(C)C)[C@@H](C)O6)CCC[C@H](C6CCC6)OC(=O)C[C@H]54)[C@@H]3C2)[C@@H]1OC [5,6-DIHYDRO-21-DESETHYL-21-CYCLOBUTYLSPINOSYN A] | 0.134 | 1.7 (≈ 2.24 µM) | 0.02 | 0.7 (≈ 0.921 µM) | > 50 |  | 0.013
CO[C@@H]1[C@@H](OC)[C@H](C)O[C@@H](O[C@H]2C[C@H]3[C@@H]4C=C5C(=O)[C@H](C)[C@@H](O[C@H]6CC[C@H](N(C)C)[C@@H](C)O6)CCC[C@H](C6CCC6)OC(=O)C[C@H]5[C@@H]4C=C[C@@H]3C2)[C@@H]1OC [21-DESETHYL-21-CYCLOBUTYLSPINOSYNS A] | >1 | 3 (≈ 3.96 µM) | 0.013 | 55 (≈ 72.6 µM) | > 50 | > 50 | 0.124
CO[C@@H]1[C@@H](OC)[C@H](C)O[C@@H](O[C@H]2C[C@H]3[C@@H]4C=C5C(=O)[C@H](C)[C@@H](O[C@H]6CC[C@H](N(C)C)[C@@H](C)O6)CCC[C@H](C(C)C)OC(=O)C[C@H]5[C@@H]4C=C[C@@H]3C2)[C@@H]1OC [21-DESETHYL-21-ISOPROPYLSPINOSYN A] | 0.123 |  | 0.02 |  |  |  | 0.022
CC[C@H]1CCC[C@H](O[C@H]2CC[C@H](N(C)C)[C@@H](C)O2)[C@@H](C)C(=O)C2=C[C@@H]3[C@@H](C=C(C)[C@@H]4C[C@@H](O[C@@H]5O[C@@H](C)[C@H](OC)[C@@H](OC)[C@H]5OC)C[C@@H]34)[C@@H]2CC(=O)O1 [SPINOSYN D] |  | 50 (≈ 67 µM) |  | 1.7 (≈ 2.28 µM) | 50 (≈ 67 µM) | 19 (≈ 25.5 µM) | 
CO[C@@H]1[C@@H](OC)[C@H](C)O[C@@H](O[C@H]2C[C@H]3[C@@H]4C=C5C(=O)[C@H](C)[C@@H](O[C@H]6CC[C@H](N(C)C)[C@@H](C)O6)CCC[C@H](C6CC6)OC(=O)C[C@H]5[C@@H]4C=C[C@@H]3C2)[C@@H]1OC [21-DESETHYL-21-CYCLOPROPYLSPINOSYNS A] | 1 | 46 (≈ 61.8 µM) | 0.125 | > 50 | > 50 | > 50 | 0.157
